Assay results: patent US8802711B2, “TRPV1 antagonists” (AbbVie Inc., priority 2011, dated 2014)
pIC50: −log10 of the molar value. Like-named read-outs stand apart in the source and are kept apart here.

How the values were obtained:
Sprague-Dawley rats [1] = assay: Rat tail immersion assay (noxious thermosensation); format: in vivo; conditions: rat, 100 μmol/kg oral, one hour post dosing, 55° C. water bath, relative to vehicle
Sprague-Dawley rats [2] = assay: Rat acute capsaicin-induced flinching behavior; format: in vivo; conditions: percent reduction in number of flinching behaviors
Description: Adult male Sprague-Dawley rats (250-300 g body weight, Charles River Laboratories, Portage, Mich.) were used. Animal handling and experimental protocols were approved by the Institutional Animal Care and Use Committee (IACUC) at Abbott Laboratories. For all surgical procedures, animals were maintained under isoflurane anesthesia (4-5% to induce, 1-3% to maintain), and the incision sites were sterilized using a 10% povidone-iodine solution prior to and after surgeries.
Rats were placed in individual observation cages. […] One hour after administration of the test compound, 2.5 μg of capsaicin in a 10 μL solution of 10% ethanol/90% hydroxypropyl-β-cyclodextrin was injected subcutaneously into the dorsal aspect of the right hind paw. The observation cage was then suspended above mirrors in order to facilitate observation. […] The number of flinching behaviors of the injured paw was recorded during the five minute observation period (Gilchrist, H. D.; Allard, B. L.; Simone, D. A.; Enhanced withdrawal responses to heat and mechanical stimuli following intraplantar injection of capsaicin in rats. Pain, 1996, 67, 179-188). The percent reduction in the number of flinching behaviors produced with oral administration of representative compounds of the present invention relative to control-treated animals (% effect) is reported in Table 3.

[3] = biological target: human TRPV1 receptor (hTRPV1) (Homo sapiens (Human), UniProt Q8NER1); assay: Capsaicin activation assay (FLIPR intracellular Ca2+); format: cell-based; conditions: inhibition of capsaicin-induced intracellular Ca2+ increase, read-out: hTRPV1 cap IC50
Chain of human TRPV1 receptor (hTRPV1) (Q8NER1 whole entry): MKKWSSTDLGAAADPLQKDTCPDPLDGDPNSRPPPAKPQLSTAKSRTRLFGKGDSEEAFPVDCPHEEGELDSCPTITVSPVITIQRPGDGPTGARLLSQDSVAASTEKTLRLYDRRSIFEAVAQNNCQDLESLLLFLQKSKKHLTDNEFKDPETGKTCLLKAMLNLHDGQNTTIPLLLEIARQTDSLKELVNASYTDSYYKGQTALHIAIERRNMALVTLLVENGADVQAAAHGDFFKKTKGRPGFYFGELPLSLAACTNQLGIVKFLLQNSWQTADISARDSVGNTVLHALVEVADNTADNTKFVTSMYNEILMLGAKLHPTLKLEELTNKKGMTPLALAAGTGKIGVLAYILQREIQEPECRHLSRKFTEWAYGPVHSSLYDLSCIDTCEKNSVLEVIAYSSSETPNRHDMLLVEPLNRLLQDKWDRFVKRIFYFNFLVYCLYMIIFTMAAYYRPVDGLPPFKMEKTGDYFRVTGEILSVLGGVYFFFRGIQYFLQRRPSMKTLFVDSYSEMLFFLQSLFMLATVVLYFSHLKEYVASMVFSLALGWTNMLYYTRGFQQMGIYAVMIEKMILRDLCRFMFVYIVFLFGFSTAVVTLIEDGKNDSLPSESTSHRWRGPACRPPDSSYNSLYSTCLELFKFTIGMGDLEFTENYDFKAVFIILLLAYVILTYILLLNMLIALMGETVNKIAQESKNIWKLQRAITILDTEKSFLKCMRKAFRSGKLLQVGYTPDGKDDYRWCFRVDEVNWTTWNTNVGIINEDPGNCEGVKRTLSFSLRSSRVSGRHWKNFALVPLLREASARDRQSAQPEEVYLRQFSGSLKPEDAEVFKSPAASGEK
Summary of the method: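 HEK293 cells stably expressing human TRPV1, loaded with Calcium-4 dye 90–120 min at room temperature, preincubated 3 min with compound (12-point one-third-log range) before capsaicin (200 nM as 4× solution). Peak FLIPR fluorescence minus baseline expressed as percent of 50 nM capsaicin control response.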

[4] = Table 1, HEK293 cells expressing human TRPV1

Structure (SMILES): O=C(Nc1cccc2[nH]ncc12)N[C@H]1CC[C@@H](c2ccccc2)C1 [Example 28, 1-(1H-indazol-4-yl)-3-[(1S,3R)-3-phenylcyclopentyl]urea]
- % Increase in tail withdrawal latency (Sprague-Dawley rats [1]): −
- % effect (Sprague-Dawley rats [2]; 10 μmol/kg p.o.): 60%
- pIC50 [3, 4]: 7.19
- pIC50 ([3]; Table 2): 7.19

Structure (SMILES): Cn1ncc2c(NC(=O)N[C@@H]3CC[C@H](c4ccccc4)C3)cccc21 [Example 4, 1-(1-methyl-1H-indazol-4-yl)-3-[(1R,3S)-3-phenylcyclopentyl]urea]
- % Increase in tail withdrawal latency (Sprague-Dawley rats [1]): −
- pIC50 [3, 4]: 7.74
- pIC50 ([3]; Table 2): 7.66

Structure (SMILES): O=C(Nc1cccc2[nH]ncc12)N[C@@H]1CC[C@@H](c2ccccc2)C1 [Example 21, 1-(1H-indazol-4-yl)-3-[(1R,3R)-3-phenylcyclopentyl]urea]
- change in vivo at 100 µmol/kg (Sprague-Dawley rats [1]; 1 h, read-out: % Increase in tail withdrawal latency): 10 to 25%
- pIC50 [3, 4]: 7.70
- pIC50 ([3]; Table 2): 7.70

Structure (SMILES): Cc1cc2c(NC(=O)N[C@@H]3CC[C@H](c4ccccc4)C3)c(F)ccc2cn1 [Example 6, 1-(6-fluoro-3-methylisoquinolin-5-yl)-3-[(1R,3S)-3-phenylcyclopentyl]urea]
- % Increase in tail withdrawal latency (Sprague-Dawley rats [1]): −
- % effect (Sprague-Dawley rats [2]; 100 μmol/kg p.o.): 88%
- pIC50 [3, 4]: 8.40
- pIC50 ([3]; Table 2): 8.40

Structure (SMILES): O=C(Nc1cccc2[nH]ncc12)N[C@H]1CC[C@H](c2ccccc2)C1 [Example 14, 1-(1H-indazol-4-yl)-3-[(1S,3S)-3-phenylcyclopentyl]urea]
- % Increase in tail withdrawal latency (Sprague-Dawley rats [1]): −
- % effect (Sprague-Dawley rats [2]; 10 μmol/kg p.o.): 76%
- pIC50 [3, 4]: 7.52
- pIC50 ([3]; Table 2): 7.52
